Experimental data as given in patent publication US20150080580A1, “THIOUREA DERIVATIVES AS a-CHYMOTRYPSIN INHIBITORS” (priority 2013, published 2015).

Key:
α-Chymotrypsin [1] = biological target: T1, α-Chymotrypsin (Bos taurus, UniProt P00766); test: α-Chymotrypsin inhibition assay (SPpNA substrate, absorbance at 410 nm); assay type: biochemical, bovine; details: α-chymotrypsin, substrate SPpNA 0.4 mM, pH 7.6, 30° C., n = 3
T1 construct: purchased Sigma-Aldrich (USA) C4129; host or cells: bovine pancreas
Description: (§1) α-Chymotrypsin (bovine pancreas, C4129) and N-succinyl-L-phenylalanine-p-nitroaniline (S2628) were purchased from Sigma-Aldrich (USA). Chymostatin (152845) from MP Biomedicals, LLC, USA, Tris(hydroxymethyl)aminomethane from Scharlau Chemie Barcelona, Spain and all other reagents were obtained from E. Merck and were of analytical grade. All other solvents and reagents were of analytical grade and used directly without purification.
This was performed in 50 mM Tris-HCl buffer pH 7.6 with 10 mM CaCl2. α-Chymotrypsin (12 units/mL prepared in 50 mM Tris-HCl buffer) with the different concentration of test compounds prepared in DMSO. It was then incubated at 30° C. for 25 min. The reaction was started by the addition of the substrate, N-succinyl-L-phenylalanine-p-nitroanilide (final concentration of 0.4 mM, prepared in the buffer as mentioned above). The change in absorbance due to released p-nitroaniline was continuously monitored at 410 nm (Choudhary et al., 2011). All the experiments were in a final volume of 200 μL in triplicate, and data was taken using a micro-plate reader (SpectraMax M2, Molecular Devices, Calif., USA).
The results were processed by using SoftMax Pro 4.8 then analyzed by MS Excel software. The % of inhibition based upon initial velocity and calculated as: […]
IC50 (Inhibition of enzymatic hydrolysis of the substrate SPpNA by 50%) value was calculated using EZ-Fit software (Perellela Scientific, Inc., Amherst, Mars, USA).

α-Chymotrypsin [2] = biological target: T1, α-Chymotrypsin; test: α-Chymotrypsin inhibition kinetic study (Lineweaver-Burk, Dixon, Hanes-Woolf plots); assay type: biochemical, bovine; details: for Type of inhibition: from Lineweaver-Burk, Dixon and Hanes-Woolf plots; for Ki: substrate SPpNA 0.4-3.2 mM, n = 3, read-out: Ki ± SEM
From the text: as §1
The change in concentration of the substrate/product (rate of reaction) was measured as optical density per minute (OD/min). This OD/min was obtained by incorporating different concentrations of compounds over substrate (SPpNA) concentrations between 0.4 mM and 3.2 mM in micro-plate reader. Reciprocal of OD/min against the reciprocal of the substrate concentration, defined as Lineweaver-Burk plot (and its secondary plot; slope vs compound concentration); the Dixon plot (and its secondary plot; slope vs reciprocal of compound concentration) and then Hanes-Woolf plot were plotted (Lineweaver et al., 1934; Dixon, 1953; Segel, 1993) Graphs were plotted using GraFit 4 (Erithacus Software Limited, Surrey, UK) and GraphPad Prism 5 (GraphPad Software, California, USA). The types of inhibition were determined by the graphical views of Dixon plots, Lineweaver-Burk plots and their secondary plots as well as Hanes-Woolf plot. The Ki values, obtained directly from the software, also were cross-checked and tallied in these graphs. Final concentration of DMSO was maintained 5.5%.

[3] = Cell proliferation inhibition (cytotoxicity) MTT assay for 3T3 cell line; assay type: cell-based, Mouse; details: 3T3 mouse fibroblast cells; 3T3 mouse fibroblasts, MTT, 72 hrs, n = 3; read-out: 3T3 cell-line GI50 ± SEM
Description: (§2) It was evaluated by using the MTT (3-[4,5-dimethylthiazole-2-yl]-2,5-diphenyl-tetrazolium bromide) assay (Mosmann, 1983). The 3T3 cell-lines (Mouse Fibroblasts) were cultured in Dulbecco's Modified Eagle's Medium, which was later supplemented with 5% of bovine serum, 100 IU/mL of penicillin, and 100 μg/mL of streptomycin, in 5% CO2 incubator at 37° C. Exponentially growing cell, 1×10^4 cells/well incorporated into each well of 96-well plates. Then, fresh the medium containing different concentrations of compounds were loaded in each well after 24 hours. Again, after 72 hrs, fresh the medium containing 0.5 mg/mL MTT were loaded in each well, and incubated further for 4 hrs. Subsequently, the media containing MTT was replaced by 100 μL of DMSO for 15 min, and then the absorbance was taken at 570 nm.

3T3 cell line = test: as above; assay type: cell-based, Mouse
Description: as §2

IC50 (α-Chymotrypsin [1]) [µM]	Type of inhibition (α-Chymotrypsin [2])	Ki (α-Chymotrypsin [2]) [µM]	SMILES	GI50 at 72 h [3] [µM]	growth inhibition for 3T3 cell lines (in words) (3T3 cell line)
42.4 ± 0.3	Mixed	31.8 ± 3.4	S=C(Nc1cccc(Cl)c1)Nc1ccc(Cl)cc1Cl [Compound 8, 1-(3-Chlorophenyl)-3-(2,4-dichlorophenyl) thiourea]	21.4 ± 0.1	showed growth inhibition
46.2 ± 0.5	Non- Competitive	39.6 ± 1	Cc1ccc(NC(=S)Nc2cccc(Cl)c2)cc1 [Compound 9, 1-(3-Chlorophenyl)-3-p-tolylthiourea]	2.3 ± 0.4	showed growth inhibition
